Assay results as given in PubChem BioAssay AID330 (DTP/NCI, 2004).
“And” between values parts separate entries of the source, which are not always exact repeats. Equal values may be shown once. Inconclusive results and toxic doses are left out. How the source made its calls: active means survival T/C of 150% or more; inactive means T/C below 125% in these data.

Tested on: P388 leukemia ip, CD2F1 mice, survival T/C
Experiment: NCI In Vivo Anticancer Drug Screen. Data for tumor model P388 Leukemia (intraperitoneal) in CD2F1 (CDF1) mice
Settings: endpoint: median survival time, higher = longer survival
Procedure, shortened: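 Mice carrying the transplanted tumor received test compound or vehicle. Survival was recorded in each group, and the value is the treated-group measurement divided by that of the vehicle-treated control group.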

[1] = dose: 50.0 mg/kg/injection, schedule: Q04DX003 (ip), vehicle: saline with Tween-80
[2] = dose: 100.0 mg/kg/injection, schedule: Q04DX003 (ip), vehicle: saline with Tween-80
[3] = dose: 200.0 mg/kg/injection, schedule: Q04DX003 (ip), vehicle: saline with Tween-80
[4] = dose: 50.0 mg/kg/injection, schedule: Q01DX005 (ip), vehicle: saline with Tween-80
[5] = dose: 100.0 mg/kg/injection, schedule: Q01DX005 (ip), vehicle: saline with Tween-80
[6] = dose: 200.0 mg/kg/injection, schedule: Q01DX005 (ip), vehicle: saline with Tween-80
[7] = dose: 100.0 mg/kg/injection, schedule: Q01DX001 (ip), vehicle: Klucel (hydroxypropylcellulose) (HPC)
[8] = dose: 400.0 mg/kg/injection, schedule: Q04DX003 (ip), vehicle: saline with Tween-80
[9] = dose: 25.0 mg/kg/injection, schedule: Q01DX009 (ip), vehicle: saline with Tween-80
[10] = dose: 50.0 mg/kg/injection, schedule: Q01DX009 (ip), vehicle: Klucel (hydroxypropylcellulose) (HPC)
[11] = dose: 100.0 mg/kg/injection, schedule: Q01DX009 (ip), vehicle: Klucel (hydroxypropylcellulose) (HPC)
[12] = dose: 200.0 mg/kg/injection, schedule: Q01DX009 (ip), vehicle: Klucel (hydroxypropylcellulose) (HPC)

Measured: T/C

N#Cc1c(-c2ccccc2)c(-c2ccccc2)n[nH]c1=O
inactive: dose: 25.0 mg/kg/injection, schedule: Q04DX002 (ip), vehicle: distilled water + Tween-80 99 % of control | dose: 50.0 mg/kg/injection, schedule: Q04DX002 (ip), vehicle: distilled water + Tween-80 100 % of control | dose: 100.0 mg/kg/injection, schedule: Q01DX001 (ip), vehicle: saline 100 % of control | dose: 100.0 mg/kg/injection, schedule: Q04DX002 (ip), vehicle: distilled water + Tween-80 98 % of control | dose: 200.0 mg/kg/injection, schedule: Q01DX001 (ip), vehicle: saline 96 % of control | dose: 200.0 mg/kg/injection, schedule: Q04DX002 (ip), vehicle: distilled water + Tween-80 98 % of control | dose: 400.0 mg/kg/injection, schedule: Q01DX001 (ip), vehicle: saline 100 % of control

COC(=O)C1CC2c3cc4c(cc3CCN2CC1C(=O)OC)OCO4 (centres undefined)
inactive: dose: 0.63 mg/kg/injection, schedule: Q01DX009 (ip), vehicle: distilled water + Tween-80 101 % of control | dose: 1.25 mg/kg/injection, schedule: Q01DX009 (ip), vehicle: distilled water + Tween-80 99 % of control | dose: 2.5 mg/kg/injection, schedule: Q01DX009 (ip), vehicle: distilled water + Tween-80 106 % of control | dose: 5.0 mg/kg/injection, schedule: Q01DX009 (ip), vehicle: distilled water + Tween-80 97 % of control | dose: 10.0 mg/kg/injection, schedule: Q01DX009 (ip), vehicle: distilled water + Tween-80 108 % of control | dose: 20.0 mg/kg/injection, schedule: Q01DX009 (ip), vehicle: distilled water + Tween-80 106 % of control

ClC=P(c1ccccc1)(c1ccccc1)c1ccccc1
inactive: [1] 104 % of control | [2] 109 % of control | [3] 104 % of control

CC(=O)NC1CCCCC1C1CCC([N+](=O)[O-])CC1 (centres undefined)
inactive: [4] 101 % of control | [5] 99 % of control | [6] 99 % of control

CC(C)C(=NN/C=N/S(C)(=O)=O)C(C)C
inactive: dose: 25.0 mg/kg/injection, schedule: Q01DX001 (ip), vehicle: Klucel (hydroxypropylcellulose) (HPC) 92 % of control | dose: 50.0 mg/kg/injection, schedule: Q01DX001 (ip), vehicle: Klucel (hydroxypropylcellulose) (HPC) 112 % of control | [7] 97 % of control

OC1(c2ccccc2)c2ccccc2-c2ccccc21
inactive: [2] 109 % of control | [3] 109 % of control | [8] 104 % of control

Nc1nc(=S)c2ncn(C3OC(COC(=O)c4ccc(Cl)cc4)C(OC(=O)c4ccc(Cl)cc4)C3OC(=O)c3ccc(Cl)cc3)c2[nH]1 (centres undefined)
inactive: [9] 122 % of control | dose: 25.0 mg/kg/injection, schedule: Q04DX003 (ip), vehicle: saline with Tween-80 95 % of control | [1] 100 % of control | [2] 104 % of control | dose: 132.0 mg/kg/injection, schedule: Q04DX003 (ip), vehicle: saline with Tween-80 116 % of control | [8] 104 % of control

CC(C)(C)c1cc(C/C=C/c2ccccc2)c(O)c(C(C)(C)C)c1
inactive: dose: 2.5 mg/kg/injection, schedule: Q01DX009 (ip), vehicle: saline with Tween-80 90 % of control | dose: 5.0 mg/kg/injection, schedule: Q01DX009 (ip), vehicle: saline with Tween-80 99 % of control | dose: 10.0 mg/kg/injection, schedule: Q01DX009 (ip), vehicle: saline with Tween-80 96 % of control

CCOC(=O)/C(Cl)=C1\SN(C(=O)OCC)N=C1C
inactive: [4] 99 % of control | [5] 95 % of control | [6] 96 % of control

COc1ccc(C(=O)C(CN2CCOCC2)CN2CCOCC2)cc1
inactive: dose: 60.0 mg/kg/injection, schedule: Q01DX005 (ip), vehicle: saline 96 % of control | dose: 120.0 mg/kg/injection, schedule: Q01DX005 (ip), vehicle: saline 111 % of control

O=P(C(=S)Nc1ccc(S(=O)(=O)N2CCCCC2)cc1)(c1ccccc1)c1ccccc1
inactive: [10] 97 % of control | [11] 95 % of control | [12] 98 % of control

Cc1ccc2[nH]c(=O)c(=O)[nH]c2c1
inactive: [9] 119 % of control | dose: 50.0 mg/kg/injection, schedule: Q01DX009 (ip), vehicle: saline with Tween-80 103 % of control | dose: 100.0 mg/kg/injection, schedule: Q01DX009 (ip), vehicle: saline with Tween-80 105 % of control | dose: 200.0 mg/kg/injection, schedule: Q01DX009 (ip), vehicle: saline with Tween-80 104 % of control

O=[N+]([O-])C1(Br)COC(c2cccc(O)c2)OC1 (centres undefined)
inactive: dose: 3.12 mg/kg/injection, schedule: Q01DX009 (ip), vehicle: saline with Tween-80 99 % of control | dose: 6.25 mg/kg/injection, schedule: Q01DX009 (ip), vehicle: saline with Tween-80 97 % of control | dose: 12.5 mg/kg/injection, schedule: Q01DX009 (ip), vehicle: saline with Tween-80 111 % of control and 94 % of control

Cc1oc(-c2ccc(F)cc2)nc1C(N)=O
inactive: [7] 97 % of control | dose: 200.0 mg/kg/injection, schedule: Q01DX001 (ip), vehicle: Klucel (hydroxypropylcellulose) (HPC) 94 % of control | dose: 400.0 mg/kg/injection, schedule: Q01DX001 (ip), vehicle: Klucel (hydroxypropylcellulose) (HPC) 101 % of control

C/C(=N\NC(=S)N1CC(C)OC(C)C1)c1ncccn1 (centres undefined)
inactive: dose: 7.5 mg/kg/injection, schedule: Q01DX005 (ip), vehicle: saline with Tween-80 104 % of control | dose: 15.0 mg/kg/injection, schedule: Q01DX005 (ip), vehicle: saline with Tween-80 98 % of control

Nc1cccc(SC2CC(=O)N(c3ccc(Cl)cc3C(=O)c3ccccc3)C2=O)c1 (centres undefined)
inactive: [10] 105 % of control | [11] 99 % of control | [12] 89 % of control

CN(C)c1ccc(C(=N)Cc2ccc3ccccc3n2)cc1
inactive: dose: 37.5 mg/kg/injection, schedule: Q01DX009 (ip), vehicle: Klucel (hydroxypropylcellulose) (HPC) 106 % of control | [10] 92 % of control | dose: 75.0 mg/kg/injection, schedule: Q01DX009 (ip), vehicle: Klucel (hydroxypropylcellulose) (HPC) 98 % of control | [11] 95 % of control | dose: 150.0 mg/kg/injection, schedule: Q01DX009 (ip), vehicle: Klucel (hydroxypropylcellulose) (HPC) 109 % of control | [12] 100 % of control

C=CCC(C(C)=O)C(=O)OC(C)(C)C (centres undefined)
inactive: dose: 50.0 mg/kg/injection, schedule: Q01DX005 (ip), vehicle: saline 101 % of control | dose: 100.0 mg/kg/injection, schedule: Q01DX005 (ip), vehicle: saline 104 % of control | dose: 200.0 mg/kg/injection, schedule: Q01DX005 (ip), vehicle: saline 111 % of control

CCCCCCC1N=C(N)N=C(N)N1c1ccc(Cl)cc1 (centres undefined)
inactive: dose: 6.25 mg/kg/injection, schedule: Q01DX005 (ip), vehicle: Klucel (hydroxypropylcellulose) (HPC) 100 % of control | dose: 12.5 mg/kg/injection, schedule: Q01DX005 (ip), vehicle: Klucel (hydroxypropylcellulose) (HPC) 110 % of control | dose: 25.0 mg/kg/injection, schedule: Q01DX005 (ip), vehicle: Klucel (hydroxypropylcellulose) (HPC) 106 % of control

C1=Nc2ccccc2/C1=C/c1c[nH]c2ccccc12
inactive: dose: 25.0 mg/kg/injection, schedule: Q01DX005 (ip), vehicle: saline with Tween-80 110 % of control | [4] 100 % of control and 103 % of control and 104 % of control | [5] 101 % of control and 103 % of control and 104 % of control | [6] 104 % of control and 118 % of control and 122 % of control | dose: 400.0 mg/kg/injection, schedule: Q01DX005 (ip), vehicle: saline with Tween-80 104 % of control

O=NNc1nc2ccccc2s1
inactive: dose: 1.56 mg/kg/injection, schedule: Q01DX009 (ip), vehicle: water 97 % of control | dose: 3.12 mg/kg/injection, schedule: Q01DX009 (ip), vehicle: water 100 % of control and 105 % of control | dose: 6.25 mg/kg/injection, schedule: Q01DX009 (ip), vehicle: water 106 % of control and 109 % of control | dose: 12.5 mg/kg/injection, schedule: Q01DX009 (ip), vehicle: water 100 % of control and 92 % of control | dose: 25.0 mg/kg/injection, schedule: Q01DX009 (ip), vehicle: water 102 % of control and 106 % of control | dose: 50.0 mg/kg/injection, schedule: Q01DX009 (ip), vehicle: water 92 % of control

CC(=O)C(C(C)=O)C(C(C)=O)C(C)=O.[Cu]
inactive: dose: 1.5 mg/kg/injection, schedule: Q01DX005 (ip), vehicle: saline with Tween-80 110 % of control | dose: 3.0 mg/kg/injection, schedule: Q01DX005 (ip), vehicle: saline with Tween-80 107 % of control | dose: 6.0 mg/kg/injection, schedule: Q01DX005 (ip), vehicle: saline with Tween-80 99 % of control | dose: 6.25 mg/kg/injection, schedule: Q01DX005 (ip), vehicle: saline with Tween-80 104 % of control
